Key:
lysosome = experiment: Lysosome imaging in HeLa cells, co-staining with LTR; format: cell-based, human; conditions: HeLa cells
Description: Then, AIE-LysoY was applied to lysosome imaging and its lysosome-targeting performance was assessed by fluorescence microscope. HeLa cells were stained with 10 μM of AIE-LysoY for 10 min, followed by washing away the abundant molecules of AIE-LysoY and incubation with 50 nM of LTR for 30 min. […] The fluorescence of AIE-LysoY overlaps perfectly with that of LTR, indicating the lysosome-targeting of AIE-LysoY.
Quantitative analysis of the degree of overlapping of these two fluorescence signals by Pearson's coefficient (Rr), which depicts the degree of linear dependence between two variables, gives an overlapping coefficient of 0.90. The high Rr value proves that AIE-LysoY is a lysosome-selective probe. […] Changing the staining time from 10 min to 60 min, the specificity to lysosome is retained, as well as the emission contrast.
To design the lysosome-specific bioprobe, a molecular engineering approach was employed. The precursor of AIE-LysoY, FAS-Br, and two morpholine-functionalized AIEgens, TPE-2Mor and Nred-mor were prepared and applied to cell imaging. The molecular structures of TPE-2mor and Nred-mor are shown below: […]

mitochondria = experiment: Co-staining with commercial organelle trackers in HeLa cells (mitochondria staining); format: cell-based, human
Description: The HeLa cells were grown overnight on a 35 mm petri dish with a cover slip. Then the HeLa cells were stained with 200 nM TPE-IQ-2O and Mito-tracker red (50 nM)/Lyso-tracker red (50 nM)/DAPI (500 nM) for 20 mins.
The DMSO solution of DPA-IQ was almost non-emissive while the aggregation state powder of this material emits strong green luminescence upon the UV excitation.
The commercially available MitoTracker Red FM is co-stained as a control together with Naph-IQ.

HeLa cells [1] = experiment: MTT cell viability assay, HeLa cells; format: cell-based, human; conditions: HeLa, different concentrations, 24 hrs
Description: Hela cells were incubated with different concentrations of Naph-IQ in culture medium for 24 hours.
Before employing AIE-LysoY as a fluorescent visualizer of lysosome, a 3-(4,5-dimethyl-2-thiazolyl)-2,5-diphenyltetrazolium bromide (MTT) cell proliferation assay was first conducted to evaluate its cytotoxicity. […] The good biocompatibility of AIE-LysoY enables its application as a fluorescent tracer to follow the autophagic process of lysosome.

HeLa cells [2] = experiment: Cancer cell imaging for HeLa cells (TTE, TFE, fl-TFE); format: cell-based, human; conditions: 10 μM; TTE in HeLa and A549, TFE and fl-TFE only in HeLa
Description: Cell Culture. HeLa cells were cultured in MEM containing 10% FBS and 1% antibiotics (100 units/mL penicillin and 100 µg/mL streptomycin) in a 5% CO2 humidity incubator at 37° C. Cell Imaging. Lung cancer cell A549 were cultured in DMEM containing 10% FBS and antibiotics (100 units/mL penicillin and 100 µg/mL streptomycin) in a 5% CO2 humidity incubator at 37° C. Two different kind of cells were grown overnight on a 35 mm petri dish with a cover slip. The live cells were incubated with 10 μM of TTE for 15/30 mins, TFE for 30′ and fl-TFE for 30′ and 5 h (the last two have been tested only in HeLa cells). In a typical experiment, 2 μL of a 10 mM stock solution of TTE in DMSO were diluted to 1 mL with cell culture medium, followed by further dilution to desired concentration. The cells were imaged under a fluorescent microscope (BX41 Microscope) using same excitation and emission filters: excitation filter=330-385 nm, dichroic mirror=420 nm, and emission filter=400 nm long pass.
The HeLa cells were grown overnight on a 35 mm petri dish with a cover slip. The live cells were incubated with 10 μM of TTE for 30 mins, which are shown in FIG. 17A-B. The HeLa cells were incubated with 50 μM oleic acid for 6 hrs and then were co-stained by 10 μM TTE and 1 μg/mL for 15 mins.

MCF-7 cells = experiment: Lysosomal imaging in MCF-7 cells, co-staining with LTR; format: cell-based; conditions: MCF-7, 50 nm TMX 24 hrs, matched with LTR
Description: The behavior of TPE-TMX in cellular settings was studied as compared to TMX. MCF-7 cells were incubated with 2 μM TPE-TMX and […] TMX for 24 hrs, respectively. The cells were then washed and directly observed under the microscope without fixation. […] However, the exact intracellular location of TMX cannot be confirmed by fluorescent microscopy because its emission wavelength is not in the range of the visible spectrum. Therefore, a series of commercial fluorescent markers were used to image drug delivery of TMX. […] On the other hand, TPE-TMX, without any aid of fluorescent dye, can be successfully monitored in the cells thanks to its intense blue emission. The controls display no emission under UV irradiation.
To further confirm the subcellular distribution of TPE-TMX, LTR was also used to co-stain MCF-7 cells with TPE-TMX. […] As expected, TPE-TMX is a specific fluorescent dye to visualize lysosomal organelle structures as well as monitor the drug release.

In the case of `Oc1cc(OCCCCCCBr)ccc1/C=N/N=C1c2ccccc2-c2ccccc21` [FAS-Br, (E)-2-(((9H-fluoren-9-ylidene)hydrazono)methyl)-5-((6-bromohexyl)oxy)phenol], the “Intracellular localisation of control probes” value (“Intracellular localisation” below) (lysosome) is reported as “lights up intracellular lipid droplets and the recticulum structures of mitochondria in HeLa cells rather than lysosomes”.

For `CCC[n+]1cc2ccc(-c3cccc4c(OC)cccc34)cc2c(-c2ccccc2)c1-c1ccccc1` [Naph-IQ], the “Mitochondrial staining compared with MitoTracker Red FM” value (mitochondria) was “can stain the mitochondrial organelle as good as MitoTracker Red FM with higher resolution” and the “Cytotoxicity by MTT assay” value (HeLa cells [1]) was “low cytotoxicity”.

In the case of `CN(C)c1ccc(/C=C(\C#N)c2ccc(-c3cc[n+](CCCCCCN4CCOCC4)cc3)cc2)cc1` [Nred-mor], the “Intracellular localisation” value (lysosome) is reported as “selectively accumulates in the mitochondria”.

With `c1coc(C(=C(c2ccco2)c2ccco2)c2ccco2)c1` [TFE, Tetrakis(2-furyl)ethene] the “Ability to enter cells as bioprobe” value (HeLa cells [2]) was “Only TTE has revealed to be useful for this purpose”.

`CC/C(=C(\c1ccccc1)c1ccc(OCCN(C)C)cc1)c1ccccc1` [TMX, Tamoxifen, reference compound] was tested, and the Subcellular distribution (MCF-7 cells) was “possible to be localized on the lysosomes”.

`CCC[n+]1cc2ccc(-c3ccc(N(c4ccccc4)c4ccccc4)cc3)cc2c(-c2ccccc2)c1-c1ccccc1` [TPA-IQ] was tested, and the “Mitochondrial staining compared with MitoTracker Red FM” value (mitochondria) was “can stain the mitochondrial organelle as well as the commercially available MitoTracker Red FM with higher resolution” and the “Cytotoxicity by MTT assay” value (HeLa cells [1]) was “low cytotoxicity”.

`c1ccc(C(=C(c2ccccc2)c2ccc(CN3CCOCC3)cc2)c2ccc(CN3CCOCC3)cc2)cc1` [TPE-2Mor] was tested, and the “Intracellular localisation” value (lysosome) was “stains all the hydrophobic regions”.

With `c1cc2c3ccoc3c3c4occc4c4ccoc4c3c2o1` [fl-TFE, Tetrafuro[2,3-a:3′,2′-c:2″,3″-f:3″′,2″′-h]-naphthalene] the “Ability to enter cells as bioprobe” value (HeLa cells [2]) was “Only TTE has revealed to be useful for this purpose”.
